Broadly, the EC50 is the concentration at which the effect is half-maximal. What is called Emax is the greatest response seen or fitted, relative to the assay's reference.

The results in this text go back to patent publication EP4752142A1, “5-HT2A RECEPTOR AGONIST, AND PREPARATION METHOD THEREFOR AND USE THEREOF” (Innovstone Therapeutics Limited, priority 2023, dated 2025).

Each structure is given as a SMILES string. Read-outs that look alike come from different tables or passages of the source.

Test [1] deals with T1, 5-HT2A receptor (Homo sapiens, UniProt P28223). Put plainly: 5-HT2AR calcium flux activation assay. In kind it is cell-based. Also noted: expressed in transfected cells; host or cells: HEK293. The settings on record: for Emax: Max Dose 100000 nM. The protocol:
• 1) For cultured cells (HEK293 cells stably expressing human 5-HT2A receptor), they were first washed twice with pre-warmed DPBS, then an appropriate amount of trypsin was added for digestion at 37°C for 1 minute; an appropriate amount of the culture medium was then added to stop digestion, and 1 mL was taken for counting and vitality determination using Vi-CELL™. • 2) Cells were centrifuged at 1000 rpm for 5 minutes. • 3) The supernatant was gently discarded, being careful not to disturb the cell pellet. • 4) Cells were diluted with the culture medium to 1×10^6 cells/mL (20,000 cells/20 µL) and seeded into 384-well poly-lysine coated cell plates. They were cultured at 37°C under 5% CO2 for 16-20 hours.
• 1) Preparation of 250 mM Probenecid solution: According to the kit instructions, 77 mg of probenecid was added to 1 mL of FLIPR buffer salt solution. Prepared fresh for immediate use. • 2) Preparation of Fluo-4 Direct™ (2×, 8 µM) loading buffer: According to the kit instructions, the required amount of Fluo-4 Direct™ was thawed in advance. 10 mL of FLIPR buffer salt solution and 0.2 mL of 250 mM Probenecid solution were added to each vial. It was vortexed in the dark for >5 minutes. Prepared fresh for immediate use.
• 1) Preparation of control and test compound plates: Compounds were gradient diluted to 10 points using Echo, and 750 nL was transferred to the corresponding compound plate. • 2) 30 µL of assay buffer salt solution was added to the corresponding compound plate, which was then centrifuged at 1000 rpm for 1 minute; • 3) The cell plate prepared the day before was taken from the incubator, and 20 µL of 2× Fluo-4 Direct™ buffer was added to each well, making a total volume of 40 µL. • 4) The plate was incubated in a 5% CO2, 37°C incubator for 50 minutes, then left at room temperature for 10 minutes. • 5) The compound plate, the cell plate, and pipette tips were placed into the instrument; • 6) The FLIPR instrument software was run according to the set program, adding 10 µL of the specified concentrations of test compounds and control compounds to the cell plate, and fluorescence signals were read. After reading, data was exported using the "Max-Min", "Read 1 to 90" method in the software. • 7) Data analysis: Agonist Activation% = (RLU−DMSO)/(HC−DMSO)*100 [formula] • RLU: Relative Light Units, read values 1 to 90; • HC: Average fluorescence signal of the highest concentration point of the agonist; • DMSO: Average fluorescence signal of the DMSO group; • 8) Data was fitted using Prism 5.0.
For agonist: EC50 was fitted using "log(agonist) vs. response -- Variable slope". Table 2: 5-HT2AR Calcium Flux Activation Assay
Background: Calcium flux is commonly read through the fluorescence of an indicator in the cells.

Test [2] concerns the target T1, 5-HT2A receptor. The experiment in a line: 5-HT2A receptor isotope competition affinity assay. In kind it is binding. The protocol:
A radiolabeled ligand (agonist or antagonist) incubated with receptor protein could form a receptor-ligand complex. An added test compound could compete with the isotopically labeled ligand for the receptor binding, eventually forming a relative steady-state equilibrium. The affinity of the test compound for the receptor was indirectly evaluated by measuring the dissociation of the isotopically labeled ligand from the receptor.
A 100x serial gradient dilution of compounds was prepared in DMSO, starting from 1 mM with 4-fold serial dilutions, resulting in 10 concentration points. Using a pipettor, 1 µL of each gradient concentration of the test compound (final concentration starting at 10 µM, 4-fold serial dilutions, 10 concentration points) was transferred to a 96-well assay plate, to each well of which 49 µL of 5-HT2A receptor protein (102 µg/mL, prepared in an assay buffer: 50 mM Tris-HCl, pH 7.4) had been added in advance (final concentration 5 µg/well). This was followed by the addition of 50 µL of isotopically labeled [^3H]-Ketanserin (2 nM, 2× final concentration, prepared in the assay buffer). The plate was sealed and incubated on a shaker at room temperature for 1 hour. The reaction mixture was filtered through a Unifilter-96 GF/C filter plate pre-treated with 0.3% PEI. The filter plate was washed with a precooled (4°C) assay buffer and then dried in an incubator at 50°C. A scintillation liquid was added, and the plate was read using a MicroBeta2 instrument. The percentage inhibition was calculated using the equation: %Inhibition=(CountHigh Signal Control-CountSample)/(CountHigh Signal Control-CountLow Signal Control)*100. A four-parameter logistic fit was used to calculate the IC50 value. High Signal Control: No compound group (the same volume of DMSO substituted). Low Signal Control: Ketanserin group (non-isotopically labeled, 2× final concentration). Table 1: Results of 5-HT2A receptor isotope competition affinity assay, Ki Values

The subject of test [3] is Mice (strain C57BL/6). Put plainly: Head-twitch response test in mice. In kind it is in vivo. The settings on record: reflects hallucinogenic effect, Figure 1. The protocol: • 1. Assay conditions and materials: • 1.1 Animal source: Mice (strain C57BL/6, purchased from Shanghai Lingchang Biotechnology Co., Ltd., 8-9 weeks old, 20-24 grams, male) • 1.2 Conditions: Temperature (20-25°C), relative humidity (40-70%), light cycle (12-hour light cycle (7:00-19:00)), free access to food and water • 1.3 Marking: Animals were marked on the tail. • 2. Assay procedure:
• A) Adaptation: Starting from the second day after the animals arrived, they were conciliated by stroking and acclimated for seven consecutive days to reduce their stress response. • B) Grouping: One hour before the assay test, animals were placed in the testing room for adaptation. On the test day, animals were randomly grouped according to body weight. Each group contained 12 animals. • C) Assay Dosing: Animal body weight was measured, and compounds were administered according to the group, with a dosing volume of 10 mL/kg for all. • D) Testing: After dosing, animals were placed in transparent observation chambers, and head-twitch behaviors were recorded over 60 minutes. • E) Assay test indicator: Total number of head-twitches within 60 minutes after dosing.

Where [4] appears, read: HEK293 cells stably expressing human 5-HT2A receptor, FLIPR, Fluo-4, read-out: EC50.
[5] abbreviates: HEK293 cells stably expressing human 5-HT2A receptor.
Setting [6] is: competition with [3H]-Ketanserin, 1 hour, room temperature, read-out: 5-HT2A receptor/Ki.

T1 sequence (P28223 whole entry): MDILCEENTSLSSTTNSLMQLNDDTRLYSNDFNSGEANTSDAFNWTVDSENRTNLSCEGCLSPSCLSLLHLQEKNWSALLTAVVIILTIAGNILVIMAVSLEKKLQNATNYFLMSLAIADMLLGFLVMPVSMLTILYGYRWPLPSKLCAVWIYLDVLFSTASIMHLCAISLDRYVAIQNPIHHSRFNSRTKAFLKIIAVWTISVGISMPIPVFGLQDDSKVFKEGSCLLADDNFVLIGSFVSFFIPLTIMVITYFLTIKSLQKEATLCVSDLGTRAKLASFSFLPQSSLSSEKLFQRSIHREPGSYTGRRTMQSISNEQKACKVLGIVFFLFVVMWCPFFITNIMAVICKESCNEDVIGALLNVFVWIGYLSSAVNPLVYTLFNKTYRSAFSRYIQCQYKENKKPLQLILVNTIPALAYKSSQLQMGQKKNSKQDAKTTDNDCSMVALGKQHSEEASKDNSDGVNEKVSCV

On to `Cc1nn(CCCN2CCC(c3c[nH]c4cccc(O)c34)C2)nc1C` (racemic) [Compound 127], for which, in test [1] (setting [4]), the EC50 was found to be 3.94 nM. In addition, the Emax in test [1] (setting [5]) is 53.4%.
As for `COc1ccccc1CCCN1CCC(c2c[nH]c3cccc(O)c23)C1` (stereo not shown) [Compound 2], in test [1] (setting [4]), the EC50 came to 16.9 nM. Moreover, in test [1] (setting [5]), the Emax is 51.5%. The Ki in test [2] (setting [6]) is less than 100 nM.
With `c1ccc2c(C3CCN(CCCc4ncon4)C3)c[nH]c2c1` (stereo not shown) [Compound 49, 3-(1-[3-(1,2,4-oxadiazol-3-yl)propyl]pyrrolidin-3-yl)-1H-indole], the EC50 in test [1] (setting [4]) came out at 34 nM. Besides, the Emax in test [1] (setting [5]) was found to be 47.6%. Besides, in test [3] (dose 30 mpk), the “Total number of head-twitches within 60 minutes after dosing” value (“Total number” for short) is recorded as “did not cause significant head-twitch behavior”. Further, in test [2] (setting [6]), the Ki is less than 100 nM.
With `Cc1nonc1CCCN1CCC(c2c[nH]c3ccccc23)C1` (stereo not shown) [Compound 54, 3-(1-(3-(4-methyl-1,2,5-oxadiazol-3-yl)propyl)pyrrolidin-3-yl)-1H-indole], the EC50 in test [1] (setting [4]) came out at 86.5 nM. Besides, the Emax in test [1] (setting [5]) is 46.7%. Further, in test [2] (setting [6]), the Ki is less than 100 nM.
For `Oc1cccc2[nH]cc(C3CCN(CCCc4ncsn4)C3)c12` (stereo not shown) [Compound 56] the same measures were 8.6 nM, 67.7% and less than 100 nM.
`Cn1cc(CCCN2CCC(c3c[nH]c4cccc(O)c34)C2)cn1` (stereo not shown) [Compound 60]: the EC50 in test [1] (setting [4]) amounted to 33.3 nM. Further, the Emax in test [1] (setting [5]) amounted to 29.9%. The Ki in test [2] (setting [6]) was less than 100 nM.
As to `Cc1nc(C)n(CCCN2CCC(c3c[nH]c4ccccc34)C2)n1` (stereo not shown) [Compound 122, 3-(1-(3-(3,5-dimethyl-1H-1,2,4-triazol-1-yl)propyl)pyrrolidin-3-yl)-1H-indole], in test [1] (setting [4]), the EC50 was determined as 24.8 nM. In addition, the Emax in test [1] (setting [5]) was 38.6%. For the same compound, the Ki in test [2] (setting [6]) is less than 100 nM.
In the case of `c1ccc2c(C3CCN(CCCn4nccn4)C3)c[nH]c2c1` (stereo not shown) [Compound 125, 3-(1-(3-(2H-1,2,3-triazol-2-yl)propyl)pyrrolidin-3-yl)-1H-indole], the EC50 in test [1] (setting [4]) is 23.1 nM. Besides, the Emax in test [1] (setting [5]) came out at 62.9%. In addition, the Ki in test [2] (setting [6]) is less than 100 nM.
Take `Cc1cnn(CCCN2CCC(c3c[nH]c4ccccc34)C2)n1` (stereo not shown) [Compound 126]: the EC50 in test [1] (setting [4]) is 27.7 nM. Moreover, in test [1] (setting [5]), the Emax was determined as 49.7%.
Regarding `CC(C)c1cnn(CCCN2CCC(c3c[nH]c4cccc(O)c34)C2)n1` (stereo not shown) [Compound 128], the EC50 in test [1] (setting [4]) stood at 7.09 nM. In test [1] (setting [5]), the Emax was found to be 63.1%.
As for `Oc1cccc2[nH]cc(C3CCN(CCc4coc5ccccc45)C3)c12` (stereo not shown) [Compound 134], the EC50 in test [1] (setting [4]) came out at 43.3 nM. Besides, the Emax in test [1] (setting [5]) was found to be 68.8%. For the same compound, the Ki in test [2] (setting [6]) is less than 100 nM.
`c1ccc2c(C3CCN(CCc4nnc5ccccn45)C3)c[nH]c2c1` (stereo not shown) [Compound 142, 3-(1-(2-((1,2,4)triazolo(4,3-a)pyridin-3-yl)ethyl)pyrrolidin-3-yl)-1H-indole]: the EC50 in test [1] was 45.9 nM. The maximum response (Emax) in test [1] (setting [5]) was found to be 41.9%. This compound also returned a Ki in test [2] of less than 100 nM.
With `c1ccc2c([C@H]3CCN(CCCc4ncon4)C3)c[nH]c2c1` [Compound 171, (R)-3-(1-[3-(1,2,4-oxadiazol-3-yl)propyl]pyrrolidin-3-yl)-1H-indole], in test [1] (setting [4]), the EC50 was 63.5 nM. Also, in test [1] (setting [5]), the Emax is 40.2%.
Regarding `Oc1cccc2[nH]cc([C@H]3CCN(CCCn4nccn4)C3)c12` [Compound 181, (R)-3-(1-(3-(2H-1,2,3-triazol-2-yl)propyl)pyrrolidin-3-yl)-1H-indol-4-ol], the Ki in test [2] (setting [6]) is less than 100 nM.
On to `Oc1cccc2[nH]cc([C@@H]3CCN(CCCn4nccn4)C3)c12` [Compound 182, (S)-3-(1-(3-(2H-1,2,3-triazol-2-yl)propyl)pyrrolidin-3-yl)-1H-indol-4-ol], for which the EC50 in test [1] (setting [4]) came out at 21.1 nM. Besides, the Emax in test [1] (setting [5]) worked out at 57.4%. Further, the “Total number” value in test [3] (dose 30 mpk) is recorded as “did not cause significant head-twitch behavior”. Further, the Ki in test [2] (setting [6]) was less than 100 nM.
For `Oc1cc(F)cc2[nH]cc(C3CCN(CCCn4nccn4)C3)c12` (stereo not shown) [Compound 184, 6-fluoro-3-(1-[3-(2H-1,2,3-triazol-2-yl)propyl]pyrrolidin-3-yl)-1H-indol-4-ol], the EC50 in test [1] was determined as 8.72 nM. Besides, the Emax in test [1] (setting [5]) amounted to 52.4%. This compound yielded a Ki in test [2] of less than 100 nM.
Take `Cc1nn(CCCN2CC[C@H](c3c[nH]c4cccc(O)c34)C2)nc1C` [Compound 185, (R)-3-(1-(3-(4,5-dimethyl-2H-1,2,3-triazol-2-yl)propyl)pyrrolidin-3-yl)-1H-indol-4-ol]: the Ki in test [2] (setting [6]) was less than 100 nM.
Regarding `Cc1nn(CCCN2CC[C@@H](c3c[nH]c4cccc(O)c34)C2)nc1C` [Compound 186, (S)-3-(1-(3-(4,5-dimethyl-2H-1,2,3-triazol-2-yl)propyl)pyrrolidin-3-yl)-1H-indol-4-ol], in test [2] (setting [6]), the Ki is less than 100 nM.
In the case of `Cc1cnn(CCCN2CCC(c3c[nH]c4cccc(O)c34)C2)n1` (stereo not shown) [Compound 187, 3-(1-(3-(4-methyl-2H-1,2,3-triazol-2-yl)propyl)pyrrolidin-3-yl)-1H-indol-4-ol], in test [1] (setting [4]), the 50% effective concentration (EC50) turned out to be 4.17 nM. In addition, the maximum response (Emax) in test [1] (setting [5]) came out at 63.7%. Also, the Ki in test [2] (setting [6]) was less than 100 nM.
Consider `Oc1cccc2[nH]cc(C3CCN(CCCn4ncc(C5CC5)n4)C3)c12` (stereo not shown) [Compound 188, 3-(1-(3-(4-cyclopropyl-2H-1,2,3-triazol-2-yl)propyl)pyrrolidin-3-yl)-1H-indol-4-ol], for which, in test [1], the EC50 amounted to 10.7 nM. The Emax in test [1] (setting [5]) was 48.5%. For the same compound, the Ki in test [2] is less than 100 nM.
With `c1ccc2c(C3CCN(CCCn4nccn4)C3)n[nH]c2c1` (stereo not shown) [Compound 189, 3-(1-(3-(2H-1,2,3-triazol-2-yl)propyl)pyrrolidin-3-yl)-1H-indazole], the Ki in test [2] (setting [6]) is less than 100 nM.
With `COc1cc(CC(C)N)c(OC)cc1I` (stereo not shown) [DOI, reference compound], the “Total number” value in test [3] (dose 3 mpk) is recorded as “significant head-twitch behavior”.
As to `Cc1cc(CCN2CCC(c3c[nH]c4cccc(F)c34)CC2)n[nH]1` [reference compound], the EC50 in test [1] (setting [4]) was greater than 100000 nM. In test [1] (setting [5]), the Emax is 0.9%.
Regarding `c1ccc2c(C3CCN(CCCn4nccn4)CC3)c[nH]c2c1` [reference compound], the EC50 in test [1] (setting [4]) is greater than 100000 nM. Also, the Emax in test [1] (setting [5]) was determined as 25.5%.
